# Laboratory results published in EP0412508A1, “Analogues of vasopressin, their preparation and pharmaceutical use” (CESKOSLOVENSKA AKADEMIE VED, priority 1989, dated 1991).
# How the values were obtained:
# Ratten [1] = experiment: uterotonic (agonistic or inhibitory) activity according to Holton, modified by Munsick (printed 'Munich'); settings: inhibitory activity expressed as pA2, rat
# Description: (§1) Die biologische Wirksamkeit wurde an Ratten bestimmt: Die uterotonische (agonistische oder inhibitorische) Wirksamkeit wurde nach Holton (Holton, J. Brit. J. Pharmacol. 3, 328, 1948) in der Bearbeitung nach Munich (Endocrinology 66, 451, 1960) bestimmt; die inhibitorische Aktivität wurde ausgedrückt als pA2 (Eggen et al., J. Gen. Physiol. 56, 250, 1970), die pressorische Wirksamkeit wurde an despinalisierten Rattenmännchen nach Krejci et al., (Brit. J. Pharm. Chemother. 30, 497, 1967) bestimmt, die antidiuretische nach Burn (Burn et al., Biol. Stand., Oxford Univ. Press London 1950). Als Standard wurde für den antidiuretischen Test das [1-Desamino,8-D-Arginin]-Vasopressin (dDAVP) verwendet. Eine Übersicht der biologischen Wirksamkeiten ist der Tabelle 1 zu entnehmen.
# [2] = system: despinalisierten Rattenmännchen; experiment: pressor activity on despinalised male rats according to Krejci et al.; type: in vivo, Ratten; settings: agonistic activity
# Description: as §1
# Ratten [3] = experiment: antidiuretic activity according to Burn, standard dDAVP; type: in vivo; settings: rat; relative to standard [1-Desamino,8-D-Arginin]-Vasopressin (dDAVP)
# Description: as §1
substance,measurement,setting,value
"[2-p-Methyl-phenylalanin,8-D-Homoarginin]-Vasopressin","Uterotonische Wirksamkeit, pA₂",Ratten [1],"pA₂ = 6,85"
same,Pressorische Wirksamkeit,[2],"0,04 IU/mg"
same,Antidiuretische Wirksamkeit (% dDAVP),Ratten [3],"< 0,1 % dDAVP"
